Here are results for 3 molecules from patent US20120270860A1, “METHODS FOR TREATING OR PREVENTING ALCOHOL-RELATED DISORDERS OR CRAVING-RELATED DISORDERS” (priority 2011, published 2012).

Series [1] in a line: Case reports: food cravings and compulsive overeating. Type of series: in vivo, human.
The conditions of series [2]: in vivo; cited from earlier work.
Series [3] deals with alcohol-dependent individuals. Briefly: Alcohol craving by Obsessive Compulsive Drinking Scale (OCDS) during the trial. Type of series: in vivo, human. The arrangement: key to OCDS: OCDS total score, 14 items scored 0-4, max 56. How it is done:
(§1) Alcohol-dependent individuals were recruited for participation in a randomized, double-blind, placebo-controlled trial for treating alcohol dependence. To evaluate the safety and efficacy of N-acetylcysteine, 2 groups (N-acetylcysteine 3600 mg/day and placebo) were compared. The total study duration was 9 weeks which included a 1-week screening period and an 8-week randomized study drug treatment period. Subjects were randomized to one of two groups (Table 1) and were evaluated weekly.
(§2) Of 46 subjects, 44 subjects who took at least one study medication were included in analysis. Data analyses were conducted on an intention-to-treat sample using the linear mixed effects model introduced by Laird and Ware (Laird, N. M. & J. H. Ware. 1982. “Random-Effects Models for Longitudinal Data.” Biometrics 38:963-974). Outcome variables were measured over nine consecutive weeks. The covariates were Alcoholics Anonymous attendance and baseline alcohol craving. All the P-values reported are 2-tailed. Significance level was set at p<0.05.
Alcohol craving was also measured weekly by the Obsessive Compulsive Drinking Scale (OCDS) (Anton R. F., et al., The obsessive compulsive drinking scale: A new method of assessing outcome in alcoholism treatment studies. Arch. Gen. Psychiatry. 1996, 53(3), 225-231; Anton R. F., et al., The Obsessive Compulsive Drinking Scale: a self-rated instrument for the quantification of thoughts about alcohol and drinking behavior, Alcohol Clin. Exp. Res., 1995, 19(1), 92-99). The OCDS is a 14-item self-rated reliable scale designed to assess obsessive and compulsive aspects of alcoholism. Each item has a score range of 0-4 (maximum total score=56). Studies of factor analysis have reported that the OCDS loads to three or four factors (OCDS: P<0.05) (Roberts. J. S., et al., Factor structure and predictive validity of the Obsessive Compulsive Drinking Scale, Alcohol Clin. Exp. Res., 1999, 23(9), 1484-1491; Bohn, M. J., et al., Psychometric properties and validity of the obsessive-compulsive drinking scale, Alcohol Clin. Exp. Res., 1996, 20(5), 817-23; Kranzler, H. R., et al., Validity of the Obsessive Compulsive Drinking Scale (OCDS): does craving predict drinking behavior?, Alcohol Clin. Exp. Res. 1999, 23(1), 108-14).

Series [4] has as its system alcohol-dependent individuals. Briefly: Quality of Life Enjoyment and Satisfaction Questionnaire (Q-LES-Q) during the trial. The arrangement: key to Q-LES-Q: 16-item Q-LES-Q, 5-point scale; higher = better health status. It counts as in vivo, human. How it is done: as §1, §2
The effect of N-acetylcysteine on quality of life was measured weekly during the trial described in Example 1. The quality of life was measured by the Quality of Life Enjoyment and Satisfaction Questionnaire (Q-LES-Q).
The short form of the Q-LES-Q is a 16-item self-rated scale designed to assess quality of life, differences in the degree of enjoyment and satisfaction among groups of subjects, as well as changes over time in a single subject (Endicott J., et al., Quality of Life Enjoyment and Satisfaction Questionnaire: a new measure, Psychopharmacol. Bull., 1993, 29(2), 321-326). It is a 5-point scale, with higher scores indicating better health status. The Q-LES-Q SF has been used extensively in drug treatment trials in psychiatry and addictions and has shown good reliability and validity (Endicott J., et al., Pediatric Quality of Life Enjoyment and Satisfaction Questionnaire (PQ-LES-Q): reliability and validity. J. Am. Acad. Child Adolesc. Psychiatry, 2006, 45(4), 401-7). It assesses the following areas: physical health, mood, work, household activities, social relationships, family relationships, leisure time activities, ability to function in daily life, sexual drive, interest and/or performance, economic status, living/housing situation, ability to get around physically, ability to do work or hobbies, and overall sense of well being.

Series [5] deals with cocaine-dependent patients. Particulars: cited from earlier work.
The nature of series [6]: Case report: shopping cravings and compulsive shopping. Particulars: person, 2400-3600 mg/day, within two weeks. Type of series: in vivo, human. How it is done:
They have had compulsive shopping behaviors for the past 20 years. They have been under severe financial stress because of their spending habits and unemployment. They had other addictive behaviors such as drinking, hoarding and overeating. Earlier, they were married, had stable job but lost everything. Various medicines such as antipsychotics and antidepressants were ineffective. On the third visit they were given N-acetylcysteine and was advised to take 2400-3600 mg/day.

Series [7] relates to alcohol-dependent individuals. Kind of series: Randomized, double-blind, placebo-controlled trial for treating alcohol dependence: safety. Type of series: in vivo, human. To be noted: N-acetylcysteine up to 3600 mg/day, 8-week treatment. The protocol:
as §1, §2

Series [8] has as its system patients with alcohol dependence. Kind of series: Case reports: alcohol consumption and alcohol-related symptoms. It counts as in vivo, human. Set-up: AST / ALT: unit not given here.
The nature of series [9]: Case report: sexual cravings and hypersexual behaviors. It counts as in vivo, human. To be noted: for hypersexual symptoms: naltrexone and topiramate before N-acetylcysteine. An excerpt:
They had sexual arousal even at age five to six years old. They started to masturbate several years later. Pretty soon masturbation became compulsive daily and multiple times a day. By then they had more access to pornography and internet. They would spend hours and hours on it. Their personal life was devastated. They had been in 12 step program called “Sex Addicts Anonymous” for the past 10 years in one of the largest cities in the US. Problem would repeatedly haunt them. Although they were given various antidepressants by doctors their condition had never stopped. They were treated with naltrexone and topiramate. […] Their hypersexual cravings and symptoms were gone. Currently, they are happily married and doing well at work. They are no longer taking naltrexone or topiramate. They are taking N-acetylcysteine only on an as needed basis. We have found same principles in voyeurism, exhibitionism and other sexual deviations. These patients often end up in jail yet they can't help themselves because of uncontrollable cravings.

The subject of series [10] is alcohol-dependent individuals. Briefly: Alcohol craving by Penn Alcohol Craving Scale (PACS) during the trial. It counts as in vivo, human. The protocol: as §1, §2
During the trial described in Example 1, alcohol craving was measured weekly by the Penn Alcohol Craving Scale (PACS)(Flannery B. A., et al., Psychometric properties of the Penn Alcohol Craving Scale. Alcohol, Clin. Exp. Res. 1999, 23(8), 1289-95). The PACS is a 5-item self-rated scale designed to assess alcohol craving severity (frequency, intensity, duration, resistance, and overall craving) during the preceding 1 week. Each item has a score range of 0-6 (maximum total craving score=30).

In series [11] the test system is cysteine/glutamate exchange. To be noted: preclinical studies; cited from earlier work.
The nature of series [12]: Liver function tests (plasma AST, ALT, GGT) during the trial. Set-up: AST / ALT / GGT: unit not given here. It counts as in vivo, human. To be noted: for ALT / AST / GGT: plasma. The protocol:
as §1
The effect of N-acetylcysteine on liver functions was measured during the trial described in Example 1. Liver functions were assessed by measuring changes in plasma aspartate aminotransferase (AST), alanine aminotransferase (ALT) and γ-glutamyl transferase (GGT) levels three times during the study (week 0, week 5 and week 9).

For series [13] the following is noted: in vivo; cited from earlier work. This is another data set of the same source.

Turning to `CC(=O)N[C@@H](CS)C(=O)O` [N-acetylcysteine], the weight in series [1] (Case 1, from 239 lbs, in 5 weeks, 2700-3600 mg per day) was found to be 225 lbs; in [1] (Case 1, two months later, 3600 mg) it was 224 lbs; in series [1] (Case 2, from 295 lbs, in one month), 286 lbs. For the same molecule, the “time for food craving to subside after taking” value in [1] (Case 3, 1200 mg) was at most 15 min. Also, the weight lost in [1] (Case 3, start 220 lbs, two weeks, 1200 mg three times a day) amounted to 6 lbs. Moreover, the “food cravings and compulsive overeating” value in series [1] (numerous test subjects) was “reduced food cravings and compulsive overeating”. Further, the “treatment of pathological gambling” value in [2] is “showed the efficacy”. Moreover, the OCDS in [3] (Week 1) stood at 29.0000; in series [3] (Week 2), 24.9000; in series [3] (Week 3), 21.6316; in series [3] (Week 4), 20.3684; in series [3] (Week 5), 18.5556; in series [3] (Week 6) it was 16.0000. Moreover, the figures for the OCDS in series [3] (Week 7), in series [3] (Week 8) and in series [3] (Week 9) were 13.5333, 13.4667 and 13.8000, respectively. Further, in series [3] (during the trial, p=0.042), the “alcohol craving by OCDS compared to placebo” value was “decreased alcohol craving”. The Q-LES-Q was found to be 50.4000 in series [4] (Week 1); 51.6390 in [4] (Week 2); 53.8772 in series [4] (Week 3); 54.1789 in [4] (Week 4); 57.7852 in series [4] (Week 5); 57.5529 in series [4] (Week 6). Besides, the Q-LES-Q is given as 58.1422 in series [4] (Week 7), 57.8000 in series [4] (Week 8) and 58.7244 in [4] (Week 9). Besides, the “quality of life by Q-LES-Q compared to placebo” value in [4] (during the trial, p=0.017) is recorded as “improved the quality of life”. In series [5] (double-blind placebo-controlled crossover trial), the “cocaine use and craving” value is “reduced cocaine use and craving”. Besides, the safety and tolerability entry in series [5] (human, in vivo) was “safe and well tolerated”. Further, the cocaine use result in series [5] (open-label clinical study of cocaine-dependent patients) is on record as “significantly reduced cocaine use”. Also, the “shopping cravings and behaviors” value in series [6] is reported as “stopped dramatically”. The serious adverse effects entry in series [7] was “no serious adverse effects”. Further, the tolerability result in series [7] is listed as “well tolerated”. Further, the alcohol use entry in series [8] (Case 1, after taking 900 mg) was “able to stop drinking alcohol”; in [8] (Case 2, soon after start), “able to abstain from alcohol”; in series [8] (Case 3, at 3600 mg/day), “able to stop drinking alcohol completely”; in series [8] (Case 4, 900 mg, before 12-24 beers/day) it was 6 drinks/day; in series [8] (Case 4, several weeks later, 2400-3600 mg), “able to abstain from alcohol”. The alcohol craving entry in [8] (Case 1, on 3600 mg) was “substantial reduction in their craving”. For the same molecule, the AST in [8] (Case 2, from 41, in two months while taking N-acetylcysteine) turned out to be 20; in [12] (Week 0), 40.89; in [12] (Week 5), 30.28; in series [12] (Week 9), 26.13. For the same molecule, the ALT in [8] (Case 2, from 51, in two months while taking N-acetylcysteine) is recorded as 18; in series [12] (Week 0), 36.67; in series [12] (Week 5) it was 33.06; in series [12] (Week 9), 29.13. The GGT came to 327 in series [8] (Case 2, from 1420, in two months while taking N-acetylcysteine); 193.00 in series [12] (Week 0); 139.06 in series [12] (Week 5); 92.93 in [12] (Week 9). The drinking consumption result in series [8] (Case 5, 3600 mg, before 6-12 drinks of vodka per day) was “reduced their drinking significantly”; in series [8] (Case 5, at 900-2700 mg/day), “about the same”. The “alcohol consumption and other alcohol-related symptoms” value in series [8] (numerous test subjects) was “reduced alcohol consumption and other alcohol-related symptoms”. In addition, the “effect in voyeurism, exhibitionism and other sexual deviations” value in series [9] (patients with uncontrollable cravings) is on record as “works dramatically”. In addition, the “hypersexual cravings and symptoms” value in series [9] (person, 2400-3600 mg/day added to naltrexone and topiramate) was “ameliorated dramatically”. Moreover, the PACS is recorded as 18.1429 in series [10] (Week 1); 15.1500 in [10] (Week 2); 14.0000 in [10] (Week 3); 11.9474 in [10] (Week 4); 11.7778 in series [10] (Week 5); 9.3529 in series [10] (Week 6). For the same molecule, the PACS was 8.3333 in [10] (Week 7), 7.2667 in series [10] (Week 8) and 7.2000 in [10] (Week 9). Moreover, the “alcohol craving by PACS compared to placebo” value in series [10] (during the trial, p=0.041) is “decreased alcohol craving”. Besides, the cocaine-primed reinstatement result in series [11] was “inhibited”. Further, the heroin-induced reinstatement result in series [11] is “inhibited”. In addition, the “liver functions (AST, ALT, GGT liver function tests)” value in [12] (8-week trial) is listed as “improved liver functions”. Besides, the half-life result in series [13] is given as “short half-life”.
Turning to `O=C1CC[C@@]2(O)[C@H]3Cc4ccc(O)c5c4[C@@]2(CCN3CC2CC2)[C@H]1O5` [naltrexone], the hypersexual symptoms entry in series [9] (person) is on record as “only partially”.
Same read-out and setting: the value for `CC1(C)O[C@@H]2[C@@H](CO[C@@]3(COS(N)(=O)=O)OC(C)(C)O[C@@H]23)O1` [topiramate] was “only partially”.
